Patent publication EP4656194A1, “COMPOSITION FOR PREVENTING OR TREATING POST-TRAUMATIC STRESS DISORDER, COMPRISING PHOSPHODIESTERASE TYPE 5 INHIBITOR AS ACTIVE INGREDIENT” (Aribio Co., Ltd, priority 2023, dated 2024)

Assays:
[1] = tested on: spatial recognition and memory; test: Y-maze test; format: in vivo, male ICR mice; details: 12 MPK p.o. once daily, ten days after drug administration; control 61.8%
Experimental: (§1) Twenty-eight male ICR mice, 5 weeks old, weighing approximately 27-30 g, were used. The animals were housed in a controlled environment with a temperature of 26.8 ± 0.5°C, relative humidity of 48.4 ± 1.7%, and lighting from 07:00 to 19:00. They were fed a standard diet (AIN-93G diet) and given free access to drinking water. After 7 days of acclimation and habituation, healthy animals were selected for the experiments.
(§2) Mirodenafil was dissolved in 10 mL of distilled water to prepare a 12 mg/kg (MPK) solution. Sildenafil and tadalafil were similarly prepared at 12 MPK each.
(§3) • 1) Control group (n=7): p.o. administration of distilled water (D.W.) • 2) Experimental group 1 (n=7): p.o. administration of mirodenafil (12 MPK) • 3) Experimental group 2 (n=7): p.o. administration of sildenafil (12 MPK) • 4) Experimental group 3 (n=7): p.o. administration of tadalafil (12 MPK)
(§4) Following 7 days of acclimation, the control group received distilled water orally once daily for 15 days, and the experimental groups received their respective drugs orally once daily for 15 days.
Mice were placed at the center of a Y-maze and allowed to explore for 8 minutes. Entries were recorded when all four paws fully entered an arm. The maze was cleaned with 70% alcohol between tests. Spontaneous alternation behavior was analyzed using the Yamada statistical method. An alternation was counted when the mouse consecutively entered three different arms. The percentage of spontaneous alternation was calculated as (number of alternations / total arm entries) × 100. • iii. Recording data(ex): BCABCBABCBCABBCACBACCABCABCACBCABC • iv. [formula]
Data were expressed as mean ± standard error of the mean (SEM). Statistical significance was assessed by T-test with thresholds of P < 0.01 or *0.01 < P < 0.05. Data analysis and plotting were performed using Prism 8 software.

[2] = tested on: context-specific fear memory; test: Passive avoidance test; format: in vivo; details: 12 MPK p.o. once daily, after 15 doses, followed by electric shock; male ICR mice
Experimental: as §1, §2, §3, §4
The passive avoidance step-through apparatus was illuminated in the bright chamber at 50% lightness. Mice were placed inside and allowed to move freely between the bright and dark chambers for 5 minutes. After 5 minutes, accommodation was terminated, and mice rested in their home cages.
Mice that completed accommodation were placed in the bright chamber under the same lighting conditions. When the mouse fully entered the dark chamber (all four paws on the floor), an electric shock (0.4 mA, 2 seconds, repeated twice with a 2-second interval) was delivered (maximum latency: 65 seconds, single session). […]
Mice that completed training were placed again in the bright chamber under the same conditions. The latency to enter the dark chamber (all four paws touching the floor) was recorded without shock (maximum latency: 300 seconds). […]
(§5) Data were expressed as mean ± standard error of the mean (SEM). Statistical significance was assessed by T-test with thresholds of P < 0.01 or *0.01 < P < 0.05. […]

[3] = tested on: object recognition and memory; test: Novel object recognition test; format: in vivo, male ICR mice; details: 12 MPK p.o. once daily, eight days after drug administration; control group 49.0%
Experimental: as §1, §2, §3, §4
Mice were placed in the center of a rat cage and allowed to explore freely for 5 minutes (accommodation). Afterward, mice rested in their home cages.
Following accommodation, two identical objects (Object A and Object B) of the same color, shape, and size were placed at fixed intervals in the cage. […]
Twenty-four hours after Training 1, mice were reintroduced to the cage with the same objects (A and B) spaced similarly. Exploration time of each object was recorded for 5 minutes. […]
Twenty-four hours after Training 2, mice were introduced to the cage containing one familiar object (A) and one novel object (C) differing in color, shape, or size. Exploration time was recorded for 5 minutes. The percentage of time spent exploring each object was calculated using the following formula: (Formula to calculate % exploration time for objects) • i. […]
as §5

Compound	spontaneous alternation rates [1]	decrease of latency time compared to the control [2]	exploration of novel objects [3]
CCCc1nn(C)c2c(=O)[nH]c(-c3cc(S(=O)(=O)N4CCN(C)CC4)ccc3OCC)nc12 [sildenafil]	60.7%	55.5%	57.9%
CN1CC(=O)N2[C@H](c3ccc4c(c3)OCO4)c3[nH]c4ccccc4c3C[C@@H]2C1=O [tadalafil]	59.6%	63.2%	57.0%
CCCOc1ccc(S(=O)(=O)N2CCN(CCO)CC2)cc1-c1nc2c(CCC)cn(CC)c2c(=O)[nH]1 [mirodenafil]	58.4%	73.5%	53.7%
